Values of other authors, collected in patent US20200246376A1, “HYDROGEN BASED COMPOSITIONS” (HYDROGEN4HEALTH PTY LTD, priority 2019, published 2020).

[HH] [molecular hydrogen, hydrogen]
saturation of molecular hydrogen in water (hydrogen water prepared by electrolysis): around 1.6 ppm | typical saturation of hydrogen gas in water (standard temperature and pressure (STP)): 1.6 mg/L
